Measurements reported in paper PMC10394516, “The pharmacokinetic profile of brensocatib and its effect on pharmacodynamic biomarkers including NE, PR3, and CatG in various rodent species” (Frontiers in Pharmacology, 2023).

How the values were obtained:
Assay type in all cases: in vivo
[1] = test system: PR3; assay: Bone marrow PR3 activity after repeated dosing, Wistar rats; conditions: for Reduction of PR3 activity vs vehicle / Change From Vehicle Control (%) PR3: 7 days
Method: Briefly, animals were weighed and randomized into different treatment groups. In total, three different dosing levels of brensocatib were tested in each species and strain; each QD dosing level was equivalent to 1.5-times the matching daily BID dose. For BID dosing, the second daily dose was administered 8-h post the morning dose. C57BL/6 mice were dosed either BID or QD for 7 consecutive days at 0/0, 0.5/0.75, 2/3, and 20/30 mg/kg/day (BID/QD). BALB/c mice were dosed for 7 consecutive days at 0/0, 0.2/0.3, 2/3, and 20/30 mg/kg/day (BID/QD). SD rats were dosed for 9 consecutive days at 0/0, 0.2/0.3, 2/3, and 20/30 mg/kg/day (BID/QD). Wistar rats were dosed for 7 consecutive days at 0/0, 0.2/0.3, 2/3, and 20/30 mg/kg/day (BID/QD).
At the completion of the study, animals were sacrificed 16–24 h post their final dose. The hind limb bones (femurs and tibias) were collected at necropsy for bone marrow analysis of NSP activities by kinetic enzymatic assays ([Basso et al., 2022]). See section Quantification of Bone Marrow NSP Activities for details.
(§1) For the mice, each animal had the femurs and tibias of both hind limbs harvested. For the rat, the femur and tibia from a single hind limb per animal was harvested. Bones were kept on wet ice until processing for bone marrow collection. In brief, bone cutters were used to cut the epiphysis (knobby ends) off the long bones to expose the bone marrow filled cavity. Each bone cavity was then flushed with 5 mL/bone (mouse) or 10 mL/bone (rat) of ice-cold RPMI media through a […] and collected in a 50-mL conical tube. Cells were spun down at 2,500 × g at 4°C for 5 min and the supernatant was aspirated. After which, bone marrow cells were lysed with 1X red blood cell (RBC) lysis buffer (Abcam, ab204733) to eliminate contaminating RBCs and washed with PBS to remove any residual RBC lysis buffer. The resulting white blood cells (WBC) were subsequently lysed with 1% (v/v) Triton X-100 in PBS. Lysates were added to 96-well plates and stored at −80°C until NSP analyses.
(§2) Bone marrow lysates prepared as described above were diluted and plated onto 96-well assay plates to quantify NSP activities as described previously ([Basso et al., 2022]). Briefly, peptide substrates for NE (N-Methoxysuccinyl-Ala-Ala-Pro-Val-7-amido-4-methylcoumarin; Sigma; St. Louis, MO; Excitation/Emission at 350/450 nm), PR3 ((7-Methoxycoumarin-4-yl)acetyl-lysyl-(picolinoyl)-Tyr-Asp-Ala-Lys-Gly-Asp-N-3-(2-4-dinitrophenyl)-2-3-diaminopropyonyl-NH2); GenScript; Piscataway, NJ; Excitation/Emission at 340/430 nm), and CatG (N-Succinyl-Ala-Ala-Pro-Phe p nitroanilide; Sigma; Absorbance at 405 nm) were added at a final assay concentration of 100 μM, 40 μM, and 200 μM, respectively, and either fluorescence or absorbance was quantified using a Synergy microplate reader (BioTek; Winooski, VT). The specific NSP activity in each sample was calculated as the total activity minus the activity in the presence of a specific NSP inhibitor (if used), including elastase inhibitor (Abcam) for NE, sivelestat (Abcam) for PR3, and cathepsin G inhibitor I (Cayman Chemical; Ann Arbor, MI) for CatG. NSP concentrations were interpolated based on their activities relative to the standard curves created using active human NE protein (Sigma), active human PR3 protein (Sigma), and active human CatG protein (Sigma), respectively. Due to unavailability of commercial mouse and/or rat NE, PR3, and CatG proteins, the corresponding human proteins were used instead since their catalytic ability is considered to be conserved across species. A portion of each cell lysate sample was retained for protein quantification using a Pierce™ BCA Protein Assay Kit (Thermo Fisher). The NSP activities were normalized for the cell lysate protein concentrations.
The Pierce™ BCA Protein Assay Kit was used to measure the total protein of the samples after lysis to allow for subsequent normalization. […]

[2] = test system: CatG; assay: PD recovery study, bone marrow CatG activity, C57BL/6 mice; conditions: for Percent change from vehicle CatG: bone marrow
Method: (§3) A PD recovery study was performed in female C57BL/6 mice dosed BID for 8 consecutive days. Mice were dosed by oral gavage either with vehicle (0 mg/kg) or 5 mg/kg brensocatib (BID; 10 mg/kg/day). After 8 consecutive days of dosing, the animals were maintained without further treatment until prescribed sacrifice (days: 1, 3, 6, 8, and 10 days post final dose). Plasma was collected from animals during the first 24 h of dosing at −0.5 (half-hour prior to dosing), 1, 8, 9, and 24 h post initial dose. Note that the 8- and 24-h plasma samples were prior to the afternoon dose and prior to the second day dose, respectively. Plasma was used for PK analysis via LC-MS/MS. On prescribed days, animals were sacrificed, and the hind limb bones (femurs and tibias) were collected at necropsy for bone marrow analysis of NSP activities by kinetic enzymatic assays.
as §1, §2
(§4) The Pierce™ BCA Protein Assay Kit was used to measure the total protein of the samples after lysis to allow for subsequent normalization. The manufacturer’s instructions for use were followed when performing this assay on a portion of the sample lysates which were diluted in PBS, the same diluent as used for preparation of the standard. Plates were read on the Biotek Synergy plate reader with Gen5 software.

[3] = test system: PR3; assay: PD recovery study, bone marrow PR3 activity, C57BL/6 mice; conditions: for Percent change from vehicle PR3: bone marrow
Method: as §3, §1, §2, §4

[4] = test system: NSPs (NE, PR3, CatG); assay: PD onset study, bone marrow NSP activities (all three NSPs), C57BL/6 mice; conditions: 5 mg/kg BID
Method: A 14-day PD onset study was performed in female C57BL/6 mice dosed BID. Mice were dosed by oral gavage either with vehicle (0 mg/kg) or 5 mg/kg brensocatib (BID; 10 mg/kg/day) for 1, 4, 7, 10, or 14 consecutive days. Plasma was collected from animals during the first 24 h of dosing at 1, 2, 8, 9, 10, and 24 h post the initial dose. Note the 8- and 24-h plasma samples were prior to the afternoon dose and the second day dose (if applicable), respectively. Plasma was used for PK analysis via LC-MS/MS. […]
Bone marrow lysates prepared as described above were diluted and plated onto 96-well assay plates to quantify NSP activities as described previously ([Basso et al., 2022]). Briefly, peptide substrates for NE (N-Methoxysuccinyl-Ala-Ala-Pro-Val-7-amido-4-methylcoumarin; Sigma; St. Louis, MO; Excitation/Emission at 350/450 nm), PR3 ((7-Methoxycoumarin-4-yl)acetyl-lysyl-(picolinoyl)-Tyr-Asp-Ala-Lys-Gly-Asp-N-3-(2-4-dinitrophenyl)-2-3-diaminopropyonyl-NH2); GenScript; Piscataway, NJ; Excitation/Emission at 340/430 nm), and CatG (N-Succinyl-Ala-Ala-Pro-Phe p nitroanilide; Sigma; Absorbance at 405 nm) were added at a final assay concentration of 100 μM, 40 μM, and 200 μM, respectively, and either fluorescence or absorbance was quantified using a Synergy microplate reader (BioTek; Winooski, VT). […]

[5] = after 8 days of 5 mg/kg BID, curve fit with free min and max
[6] = 1 day recovery after 8 days of 5 mg/kg BID
[7] = 3 days recovery after 8 days of 5 mg/kg BID
[8] = 6 days recovery after 8 days of 5 mg/kg BID
[9] = 8 days recovery after 8 days of 5 mg/kg BID
[10] = 10 days recovery after 8 days of 5 mg/kg BID

## Cn1c(=O)oc2ccc(-c3ccc(C[C@@H](C#N)NC(=O)[C@@H]4CNCCCO4)cc3)cc21 [brensocatib]
[1]; BID highest dose (20 mg/kg/day)
  Reduction of PR3 activity vs vehicle: 46%
[1]; QD highest dose (30 mg/kg/day)
  Reduction of PR3 activity vs vehicle: 59%
[1]; highest dose level 20/30 (BID/QD) mg/kg/day
  Combined BID and QD percent reduction, PR3: 53%
[1]; oral BID 0.2 mg/kg/day
  Change From Vehicle Control (%) PR3: +10% (p = 0.9848)
[1]; oral BID 2 mg/kg/day
  Change From Vehicle Control (%) PR3: +22% (p = 0.8768)
[1]; oral BID 20 mg/kg/day
  Change From Vehicle Control (%) PR3: −46% (p = 0.4135)
[1]; oral QD 0.3 mg/kg/day
  Change From Vehicle Control (%) PR3: +6% (p = 0.9963)
[1]; oral QD 3 mg/kg/day
  Change From Vehicle Control (%) PR3: −35% (p = 0.5635)
[1]; oral QD 30 mg/kg/day
  Change From Vehicle Control (%) PR3: −59% (p = 0.1437)
[2]; [5]
  Recovery: Time to reach 50% recovery, CatG: 3.3 days
  Recovery: Time to reach 90% recovery, CatG: 5.2 days
  Recovery: Time to reach 95% recovery, CatG: 5.5 days
  Recovery: Time to reach 100% recovery, CatG: 5.8 days
[2]; [6]
  Percent change from vehicle CatG: −93% (p < 0.0001)
[2]; [7]
  Percent change from vehicle CatG: −60% (p < 0.0001)
[2]; [8]
  Percent change from vehicle CatG: −14% (p = 0.2431)
[2]; [9]
  Percent change from vehicle CatG: +26% (p = 0.0133)
[2]; [10]
  Percent change from vehicle CatG: +38% (p < 0.0001)
[3]; [5]
  Recovery: Time to reach 50% recovery, PR3: 1.4 days
  Recovery: Time to reach 90% recovery, PR3: 5.2 days
  Recovery: Time to reach 95% recovery, PR3: 6.2 days
  Recovery: Time to reach 100% recovery, PR3: 7.5 days
[3]; [6]
  Percent change from vehicle PR3: −63% (p < 0.0001)
[3]; [7]
  Percent change from vehicle PR3: −28% (p = 0.0024)
[3]; [8]
  Percent change from vehicle PR3: −14% (p = 0.3753)
[3]; [9]
  Percent change from vehicle PR3: +5% (p = 0.9691)
[3]; [10]
  Percent change from vehicle PR3: +16% (p = 0.1549)
[4]; visually observed
  Time to maximum reduction in NSP activities (observed): ~7 days
[4]; with modeling
  Time to maximum reduction in NSP activities (with modeling): ~8 days
